This series is described as follows: Dissolution time of a quantity corresponding to 75 mg of Imidapril in 30 ml of water at room temperature. Conditions: quantity of formulation corresponding to 75 mg of Imidapril added to 30 ml of stirred water at room temperature. It counts as physicochemical. As for the experimental part:
This crystalline condition makes it possible to obtain a quick dissolution Imidapril powder, i.e., having a total dissolution time of the powder of 30 sec for a quantity of 75 mg of Imidapril in 30 ml of water at room temperature (25° C.). […] The apparent dissolution time is noted.

The structures appear in SMILES notation.

`CCOC(=O)[C@H](CCc1ccccc1)N[C@@H](C)C(=O)N1C(=O)N(C)C[C@H]1C(=O)O` [Standard Imidapril, Imidapril]: the “Time (s) (apparent dissolution time)” value was 420 s.
